Results reported in US20220348558A1, “INHIBITORS OF ENCEPHALITIC ALPHAVIRUSES” (priority 2019, published 2022).

Assays:
[1] = system: VEEV TC83; experiment: microbe, parasite or virus in culture; format: cell-based; conditions: Venezuelan equine encephalitis virus, Vero 76, 48 h, read-out: VEEV TC83 EC50 nM
[2] = system: WEEV California; experiment: microbe, parasite or virus in culture; format: cell-based; conditions: Western equine encephalitis virus, Vero 76, 48 h, read-out: WEEV California EC50 nM

SMILES	EC50 [1] [nM]	EC50 [2] [nM]
Cc1cc([N+](=O)[O-])cc2c(=O)n(-c3ccc(Cl)c(F)c3)c([C@H]3CCCN3)nc12 [Example 60, (R)-3-(4-chloro-3-fluorophenyl)-8-methyl-6-nitro-2-(pyrrolidin-2-yl) quinazolin-4 (3H)-one]	1 to 50	1 to 50
COc1ccc(-n2c([C@H]3CCCN3)nc3c(N4CCOCC4)cc(C#N)cc3c2=O)cc1F [Example 113, (R)-3-(3-fluoro-4-methoxyphenyl)-8-morpholino-4-oxo-2-(pyrrolidin-2-yl)-3,4-dihydroquinazoline-6-carbonitrile]	1 to 50	51 to 150
COc1ccc(-n2c([C@H]3Cc4ccccc4N3)nc3c(-c4ccc(C)nc4)cc(C#N)cc3c2=O)cc1F [Example 128, (R)-3-(3-fluoro-4-methoxyphenyl)-2-(indolin-2-yl)-8-(6-methylpyridin-3-yl)-4-oxo-3,4-dihydroquinazoline-6-carbonitrile]	1 to 50	151 to 500
COc1ccc(-n2c(C3CCCN3)nc3c(-c4ccc(NS(C)(=O)=O)cc4)cc(C#N)cc3c2=O)cc1F (stereo not drawn) [Example 157, N-(4-(6-Cyano-3-(3-fluoro-4-methoxyphenyl)-4-oxo-2-(pyrrolidin-2-yl)-3,4-dihydroquinazolin-8-yl)phenyl)methanesulfonamide]	51 to 150	51 to 150
COc1ccc(-n2c([C@H]3C[C@H](F)CN3)nc3c(C)cc([N+](=O)[O-])cc3c2=O)cc1F [Example 62, 2-((2R,4S)-4-fluoropyrrolidin-2-yl)-3-(3-fluoro-4-methoxyphenyl)-8-methyl-6-nitroquinazolin-4 (3H)-one]	51 to 150	51 to 150
COc1c(F)cc(-n2c([C@H]3CCCN3)nc3c(-c4ccc(C(F)(F)F)nc4)cc(C#N)cc3c2=O)cc1F [Example 118, (R)-3-(3,5-difluoro-4-methoxyphenyl)-4-oxo-2-(pyrrolidin-2-yl)-8-(6-(trifluoromethyl)pyridin-3-yl)-3,4-dihydroquinazoline-6-carbonitrile]	1 to 50	51 to 150
COc1ccc(-n2c([C@H]3CCCN3)nc3c(C4CC4)cc([N+](=O)[O-])cc3c2=O)cc1 [Example 95, (R)-8-cyclopropyl-3-(4-methoxyphenyl)-6-nitro-2-(pyrrolidin-2-yl) quinazolin-4 (3H)-one]	1 to 50	51 to 150
COc1ccc(-n2c([C@@H]3CCN(C)C3)nc3c(C)cc([N+](=O)[O-])cc3c2=O)cc1F [Example 68, (R)-3-(3-fluoro-4-methoxyphenyl)-8-methyl-2-(1-methylpyrrolidin-3-yl)-6-nitroquinazolin-4 (3H)-one]	151 to 500	151 to 500
Cc1cc(-c2cc(C#N)cc3c(=O)n(-c4cc(F)c(N5CC6(COC6)C5)c(F)c4)c(C4CCCN4)nc23)cc(C)n1 (stereo not drawn) [Example 163, 3-(3,5-difluoro-4-(2-oxa-6-azaspiro[3.3]heptan-6-yl)phenyl)-8-(2,6-dimethylpyridin-4-yl)-4-oxo-2-(pyrrolidin-2-yl)-3,4-dihydroquinazoline-6-carbonitrile]	> 1000	> 1000
COc1ccc(-n2c([C@@H]3CCCN3)nc3c(-c4cccnc4)cc(C#N)cc3c2=O)cc1F [Example 108, (S)-3-(3-fluoro-4-methoxyphenyl)-4-oxo-8-(pyridin-3-yl)-2-(pyrrolidin-2-yl)-3,4-dihydroquinazoline-6-carbonitrile]	1 to 50	1 to 50
COc1ccc(-n2c(C3CCCN3)nc3c(Cc4ccc(C)nc4)cc(C#N)cc3c2=O)cc1F (stereo not drawn) [Example 187, 3-(3-fluoro-4-methoxyphenyl)-8-((6-methylpyridin-3-yl)methyl)-4-oxo-2-(pyrrolidin-2-yl)-3,4-dihydroquinazoline-6-carbonitrile]	51 to 150	151 to 500
COc1ccc(-n2c(C3CCCN3)nc3c(C#Cc4ccc(C)nc4)cc(C#N)cc3c2=O)cc1F (stereo not drawn) [Example 194, 3-(3-Fluoro-4-methoxyphenyl)-8-((6-methylpyridin-3-yl)ethynyl)-4-oxo-2-(pyrrolidin-2-yl)-3,4-dihydroquinazoline-6-carbonitrile]	51 to 150	51 to 150
N#Cc1ccccc1-n1c([C@H]2CCCN2)nc2ccc([N+](=O)[O-])cc2c1=O [Example 22, (R)-2-(6-nitro-4-oxo-2-(pyrrolidin-2-yl)quinazolin-3 (4H)-yl)benzonitrile]	> 1000	> 1000
COc1ccc(-n2c([C@H]3CCCN3)nc3c(-c4cncnc4)cc([N+](=O)[O-])cc3c2=O)cc1F [Example 88, (R)-3-(3-fluoro-4-methoxyphenyl)-6-nitro-8-(pyrimidin-5-yl)-2-(pyrrolidin-2-yl) quinazol-in-4 (3H)-one]	1 to 50	1 to 50
COc1ccc(-n2c(C3CCCN3)nc3c(-c4ccc(O)cc4)cc(C#N)cc3c2=O)cc1F (stereo not drawn) [Example 158, 3-(3-Fluoro-4-methoxyphenyl)-8-(4-hydroxyphenyl)-4-oxo-2-(pyrrolidin-2-yl)-3,4-dihydroquinazoline-6-carbonitrile]	501 to 1000	501 to 1000
COc1ccc(-n2c([C@@H]3CCCN3)nc3c(Br)cc(C#N)cc3c2=O)cc1F [Example 97, (S)-8-bromo-3-(3-fluoro-4-methoxyphenyl)-4-oxo-2-(pyrrolidin-2-yl)-3,4-dihydroquinazoline-6-carbonitrile]	1 to 50	1 to 50
COc1ccc(-n2c([C@H]3CCCN3)nc3ccc([N+](=O)[O-])cc3c2=O)cc1F [Example 24, (R)-3-(3-fluoro-4-methoxyphenyl)-6-nitro-2-(pyrrolidin-2-yl) quinazolin-4 (3H)-one]	1 to 50	1 to 50
Cc1ccccc1-n1c([C@H]2CCCN2)nc2ccc([N+](=O)[O-])cc2c1=O [Example 35, (R)-6-nitro-2-(pyrrolidin-2-yl)-3-(o-tolyl)quinazolin-4 (3H)-one]	> 1000	> 1000
COc1c(F)cc(-n2c(C34CC(CN3)C4)nc3c(-c4ccnc(C)c4)cc(C#N)cc3c2=O)cc1F [Example 173, 2-(2-azabicyclo[2.1.1]hexan-1-yl)-3-(3,5-difluoro-4-methoxyphenyl)-8-(2-methylpyridin-4-yl)-4-oxo-3,4-dihydroquinazoline-6-carbonitrile]	51 to 150	51 to 150
C=C(C)c1ccc(-c2cc(C#N)cc3c(=O)n(-c4cc(F)c(OC)c(F)c4)c(C4CCCN4)nc23)cc1 (stereo not drawn) [Example 172, 3-(3,5-difluoro-4-methoxyphenyl)-4-oxo-8-(4-(prop-1-en-2-yl)phenyl)-2-(pyrrolidin-2-yl)-3,4-dihydroquinazoline-6-carbonitrile]	51 to 150	51 to 150
COc1ccc(-n2c([C@H]3CCCN3)nc3cc(F)c(C#N)cc3c2=O)cc1 [Example 34, (R)-7-fluoro-3-(4-methoxyphenyl)-4-oxo-2-(pyrrolidin-2-yl)-3,4-dihydroquinazoline-6-carbonitrile]	51 to 150	51 to 150
COc1ccc(-n2c([C@H]3CCCN3)nc3c(-c4cncc(C#N)c4)cc([N+](=O)[O-])cc3c2=O)cc1F [Example 94, (R)-3-(3-fluoro-4-methoxyphenyl)-8-(5-cyanopyridin-3-yl)-6-nitro-2-(pyrrolidin-2-yl) quinazolin-4 (3H)-one]	1 to 50	51 to 150
COc1ccc(-n2c([C@H]3CCCN3)nc3c(-c4cncnc4)cc(C#N)cc3c2=O)cc1F [Example 105, (R)-3-(3-fluoro-4-methoxyphenyl)-4-oxo-8-(pyrimidin-5-yl)-2-(pyrrolidin-2-yl)-3,4-dihydroquinazoline-6-carbonitrile]	51 to 150	151 to 500
COc1ccc(-n2c([C@H]3C[C@H](F)CN3)nc3c(C)cc(C#N)cc3c2=O)cc1 [Example 53, 2-((2R,4S)-4-fluoropyrrolidin-2-yl)-3-(4-methoxyphenyl)-8-methyl-4-oxo-3,4-dihydroquinazoline-6-carbonitrile]	151 to 500	151 to 500
COCCOc1c(F)cc(-n2c(C3CCCN3)nc3c(-c4cc(C)nc(C)c4)cc(C#N)cc3c2=O)cc1F (stereo not drawn) [Example 162, 3-(3,5-difluoro-4-(2-methoxyethoxy)phenyl)-8-(2,6-dimethylpyridin-4-yl)-4-oxo-2-(pyrrolidin-2-yl)-3,4-dihydroquinazoline-6-carbonitrile]	51 to 150	51 to 150
O=c1c2cc([N+](=O)[O-])ccc2nc(C2CCCN2)n1-c1cccc(Cl)c1 (stereo not drawn) [Example 39, 3-(3-chlorophenyl)-6-nitro-2-(pyrrolidin-2-yl) quinazolin-4 (3H)-one]	51 to 150	> 1000
COc1ccc(-n2c([C@H]3CCCN3)nc3ccc(C#N)cc3c2=O)cc1 [Example 14, (R)-3-(4-methoxyphenyl)-4-oxo-2-(pyrrolidin-2-yl)-3,4-dihydroquinazoline-6-carbonitrile]	1 to 50	51 to 150
COc1c(F)cc(-n2c(C34CC(CN3)C4)nc3c(-c4cc(C)nc(C)c4)cc(C#N)cc3c2=O)cc1F [Example 174, 2-(2-azabicyclo[2.1.1]hexan-1-yl)-3-(3,5-difluoro-4-methoxyphenyl)-8-(2,6-dimethylpyridin-4-yl)-4-oxo-3,4-dihydroquinazoline-6-carbonitrile]	51 to 150	51 to 150
COc1ccc(-n2c([C@H]3CC(=O)CN3)nc3c(-c4ccc(C)nc4)cc(C#N)cc3c2=O)cc1F [Example 186, (R)-3-(3-fluoro-4-methoxyphenyl)-8-(6-methylpyridin-3-yl)-4-oxo-2-(4-oxopyrrolidin-2-yl)-3,4-dihydroquinazoline-6-carbonitrile]	151 to 500	501 to 1000
COc1ccc(-n2c([C@@H]3C[C@@H](O)CN3)nc3c(-c4ccc(C)nc4)cc(C#N)cc3c2=O)cc1F [Example 116, 3-(3-fluoro-4-methoxyphenyl)-2-((2S,4R)-4-hydroxypyrrolidin-2-yl)-8-(6-methylpyridin-3-yl)-4-oxo-3,4-dihydroquinazoline-6-carbonitrile]	> 1000	> 1000
